Experimental data published in ChEMBL document CHEMBL1137322, “Arylmethyloxyphenyl derivatives: small molecules displaying P-glycoprotein inhibition” (J Med Chem, 2006).
The source made the active and inactive calls. The calls are words filed in the database; no cut-off is given here.

How the values were obtained:
[1] = molecular target: T1, 5-hydroxytryptamine receptor 1A (Homo sapiens, UniProt P08908); assay: Binding affinity to 5HT1A receptor
T1 sequence (P08908 whole entry): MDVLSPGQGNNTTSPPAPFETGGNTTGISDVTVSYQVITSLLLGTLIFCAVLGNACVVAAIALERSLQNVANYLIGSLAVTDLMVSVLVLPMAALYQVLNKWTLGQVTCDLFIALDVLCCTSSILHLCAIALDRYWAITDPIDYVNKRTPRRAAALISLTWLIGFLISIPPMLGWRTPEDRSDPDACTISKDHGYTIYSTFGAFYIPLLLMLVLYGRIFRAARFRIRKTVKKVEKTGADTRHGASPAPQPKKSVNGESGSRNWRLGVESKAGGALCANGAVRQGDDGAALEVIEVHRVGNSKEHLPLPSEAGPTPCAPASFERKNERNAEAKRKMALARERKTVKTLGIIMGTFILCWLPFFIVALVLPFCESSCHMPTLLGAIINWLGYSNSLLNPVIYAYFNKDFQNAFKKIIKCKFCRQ

[2] = molecular target: T2, ATP-dependent translocase ABCB1 (Homo sapiens, UniProt P08183); assay: Inhibition of Pgp measured as inhibition of [3H]vinblastine basolateral to apical transport in Caco-2 cells; type: functional, cell-based
T2 sequence (P08183 whole entry): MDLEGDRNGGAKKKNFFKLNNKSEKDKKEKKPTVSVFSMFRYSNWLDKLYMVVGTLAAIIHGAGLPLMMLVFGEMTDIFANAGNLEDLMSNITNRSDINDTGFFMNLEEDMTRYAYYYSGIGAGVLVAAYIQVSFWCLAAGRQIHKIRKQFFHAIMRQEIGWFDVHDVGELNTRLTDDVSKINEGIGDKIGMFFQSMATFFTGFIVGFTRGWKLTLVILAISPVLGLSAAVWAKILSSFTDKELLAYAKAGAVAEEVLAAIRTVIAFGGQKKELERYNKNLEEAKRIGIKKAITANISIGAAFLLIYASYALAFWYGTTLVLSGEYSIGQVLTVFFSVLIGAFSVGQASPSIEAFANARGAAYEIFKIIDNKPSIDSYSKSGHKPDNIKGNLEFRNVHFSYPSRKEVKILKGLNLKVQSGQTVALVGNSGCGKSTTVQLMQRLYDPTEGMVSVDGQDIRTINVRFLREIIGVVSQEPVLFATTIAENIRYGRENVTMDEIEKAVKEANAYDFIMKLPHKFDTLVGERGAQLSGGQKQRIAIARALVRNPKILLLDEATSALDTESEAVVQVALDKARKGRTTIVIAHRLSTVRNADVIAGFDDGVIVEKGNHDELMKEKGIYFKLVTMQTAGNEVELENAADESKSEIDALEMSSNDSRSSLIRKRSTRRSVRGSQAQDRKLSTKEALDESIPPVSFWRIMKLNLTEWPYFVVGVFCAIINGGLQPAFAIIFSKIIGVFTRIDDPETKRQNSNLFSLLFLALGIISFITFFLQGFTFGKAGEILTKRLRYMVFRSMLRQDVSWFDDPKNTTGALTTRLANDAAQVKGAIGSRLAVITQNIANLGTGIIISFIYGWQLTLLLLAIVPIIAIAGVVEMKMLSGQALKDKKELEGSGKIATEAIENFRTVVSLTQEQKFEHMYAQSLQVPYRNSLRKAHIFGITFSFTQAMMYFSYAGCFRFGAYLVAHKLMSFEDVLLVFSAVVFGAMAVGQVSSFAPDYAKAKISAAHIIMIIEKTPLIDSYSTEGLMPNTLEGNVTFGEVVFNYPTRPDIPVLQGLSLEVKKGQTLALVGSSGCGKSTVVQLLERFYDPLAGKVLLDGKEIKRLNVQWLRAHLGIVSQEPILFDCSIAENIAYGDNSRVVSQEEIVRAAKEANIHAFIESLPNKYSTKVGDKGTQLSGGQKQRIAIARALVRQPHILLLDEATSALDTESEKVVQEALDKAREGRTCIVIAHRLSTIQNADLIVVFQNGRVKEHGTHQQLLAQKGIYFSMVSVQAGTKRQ

Caco-2 [3] = assay: Inhibition of vinblastine-induced ATPase activation in Caco-2 cells; type: functional
D(2) dopamine receptor = D(2) dopamine receptor (Homo sapiens, UniProt P14416); assay: Binding affinity to D2 receptor
Chain of D(2) dopamine receptor (P14416 whole entry): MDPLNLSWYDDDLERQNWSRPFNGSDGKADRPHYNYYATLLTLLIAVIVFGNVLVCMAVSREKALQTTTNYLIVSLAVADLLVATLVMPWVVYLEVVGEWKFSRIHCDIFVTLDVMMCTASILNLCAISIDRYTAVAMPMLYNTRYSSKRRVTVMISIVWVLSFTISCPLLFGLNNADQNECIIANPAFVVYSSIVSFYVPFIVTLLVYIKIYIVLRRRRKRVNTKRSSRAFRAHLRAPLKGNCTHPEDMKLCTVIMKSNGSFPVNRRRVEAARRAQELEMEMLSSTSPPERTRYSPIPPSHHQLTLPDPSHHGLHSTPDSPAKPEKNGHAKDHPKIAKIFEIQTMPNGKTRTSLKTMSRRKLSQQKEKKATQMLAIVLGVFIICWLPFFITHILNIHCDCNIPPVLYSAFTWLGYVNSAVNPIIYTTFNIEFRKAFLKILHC

Caco-2 [4] = assay: Inhibition of ATPase measured as increase in ATP level in Caco-2 cells at 20 uM relative to vinblastine after 120 mins; type: functional, Homo sapiens; set-up: scale not given: the % may be the effect or the level left
[5] = molecular target: T2, ATP-dependent translocase ABCB1; assay: Inhibition of Pgp measured as doxorubicin accumulation in MCF7/Adr cells at 20 nM by flow cytometry; type: functional, cell-based; conditions: nci/adr-res, 0.02 µM
NCI/ADR-RES = assay: Cytotoxicity against MCF7/Adr cells at 100 uM after 48 hrs; type: functional, Homo sapiens
Caco-2 [6] = assay: Inhibition of ATPase measured as ATP availability in Caco-2 cells at 20 nM after 60 mins relative to control; type: functional, Homo sapiens; set-up: scale not given: the % may be the effect or the level left
Caco-2 [7] = assay: Inhibition of ATPase measured as ATP availability in Caco-2 cells at 20 nM after 90 mins relative to control; type: functional, Homo sapiens; set-up: scale not given: the % may be the effect or the level left
Caco-2 [8] = assay: Inhibition of ATPase measured as ATP availability in Caco-2 cells at 20 nM after 120 mins relative to control; type: functional, Homo sapiens; set-up: scale not given: the % may be the effect or the level left

SMILES | Ki [1] [µM] | EC50 [2] [µM] | Ki (D(2) dopamine receptor) [µM] | Activity [5] | Activity (Caco-2 [3]; Homo sapiens) | Activity (Caco-2 [4]) [%] | Activity (NCI/ADR-RES) [%] | Activity (Caco-2 [3]) [µM] | Activity (Caco-2 [6]) [%] | Activity (Caco-2 [7]) [%] | Activity (Caco-2 [8]) [%]
COc1cccc(CCc2ccccc2OCc2cccc(OC)c2)c1 | 5 | 17.2 | 5 | Active | inactive | 41 | 8 |  |  |  | 
CC[C@]1(O)C[C@@H]2CN(CCc3c([nH]c4ccccc34)[C@@](C(=O)OC)(c3cc4c(cc3OC)N(C)[C@H]3[C@@](O)(C(=O)OC)[C@H](OC(C)=O)[C@]5(CC)C=CCN6CC[C@]43[C@@H]65)C2)C1 [VINBLASTINE] |  |  |  |  |  |  |  |  | 81 | 72 | 42
COc1cc2c(cc1OC)CN(CCc1ccc(NC(=O)c3cccc4c(=O)c5cccc(OC)c5[nH]c34)cc1)CC2 |  |  |  |  | inactive |  |  |  |  |  | 
COc1ccc(CCN(C)CCCC(C#N)(c2ccc(OC)c(OC)c2)C(C)C)cc1OC (centres undefined) |  |  |  |  |  |  | 95 |  |  |  | 
COc1cccc(CCc2ccccc2OCc2cccnc2)c1 | 5 |  | 5 |  |  |  | 8 | 400 |  |  | 

More lines, main results first:

Ki [1] [µM] | EC50 [2] [µM] | Ki (D(2) dopamine receptor) [µM] | Activity [5] | SMILES | Activity (Caco-2 [3]; Homo sapiens) | Activity (Caco-2 [4]) [%] | Activity (NCI/ADR-RES) [%] | Activity (Caco-2 [3]) [µM] | Activity (Caco-2 [6]) [%] | Activity (Caco-2 [7]) [%] | Activity (Caco-2 [8]) [%]
5 |  | 5 |  | c1ccc(CCc2ccccc2OCc2ccccc2)cc1 |  |  | 8 | 50 |  |  | 
5 | 92.8 | 5 |  | COc1cccc(CCc2ccccc2OCc2ccccc2)c1 | inactive | 19 | 8 |  |  |  | 
5 | 125 | 5 |  | c1ccc(CCc2ccccc2OCc2cccnc2)cc1 |  |  | 8 | 100 |  |  | 
5 | 100 | 5 |  | c1ccc(CCc2ccccc2OCc2ccccn2)cc1 | inactive | 15 | 8 |  |  |  | 
5 | 27.6 | 5 | Active | COc1cccc(CCc2ccccc2OCc2ccccn2)c1 | inactive | 41 | 8 |  |  |  | 
